Tests used:
SMNDC1-GFP αTC1 clones = assay: Live imaging of endogenously tagged SMNDC1-GFP; assay type: cell-based, mouse
Excerpt: Cell lines with fluorescent tags in the endogenous intron loci of different genes were generated as described in Serebrenik et al., and Reicher et al.[39],[74]. Cells were transiently transfected using Avalanche-Everyday Transfection Reagent with three plasmids in parallel: (1) the donor plasmid containing the artificial intron with splice acceptor and splice donor site, the fluorescent tag GFP or RFP, and a possible correction for the frame of the targeted intron, (2) a pX330 backbone containing Cas9 and the gRNA against the donor plasmid, and (3) a plasmid expressing the gRNA against the target intron (see table below). After 3–5 days, GFP- and/or RFP-positive cells were sorted on a SONY SH800 Cell Sorter to get fluorescent single cell clones. Clones were validated for the correct integration of the intron-tag via comparison of live cell images to publicly available or in-house IF images, genomic DNA PCR amplification of the respective loci, and western blots with antibodies against the target protein and/or the fluorescent tag.
Cells were imaged on a PerkinElmer Opera Phenix automated microscope with 500 ms exposure time in either GFP or RFP channel, or on a Zeiss LSM 980 microscope. For condition-independent identification nuclear markers such as Hoechst or DRAQ5^TM were used.
Images were analyzed using the high-content image acquisition and analysis software Harmony® 4.9 developed by PerkinElmer. First, nuclei were identified in the channel of the nuclear marker (DAPI/ Hoechst/ DRAQ5^TM) (with Method C, Common Threshold 0.75, Area > 10 µm^2). After the identification of nuclei, their corresponding cytoplasm was also identified using the respective nucleic acid marker (with Method A, Individual Threshold 0.15). Even though the highest staining of these nuclear markers is obviously detected in the nucleus they still produce a significant staining of the cytoplasm above background. After defining the respective cell areas, mean intensity in the different channels was measured. Finally, spots were identified with the according “Spots” algorithm (with Method A, Relative Spot Intensity > 0.053, Splitting Sensitivity: 1.0).

SMN Tudor domain = SMN Tudor domain (Homo sapiens, UniProt Q16637); assay: AlphaScreen, SMN Tudor domain / sDMA-peptide interaction
SMN Tudor domain, sequence (Q16637 84-147): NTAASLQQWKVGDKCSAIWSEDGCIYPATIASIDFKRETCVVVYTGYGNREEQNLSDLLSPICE
Method: To establish an AlphaScreen[50], we coupled donor beads to purified SMNDC1’s (or SMN’s) Tudor domain via a His-Tag and acceptor beads to a biotinylated peptide corresponding to the C-terminal region of the Small nuclear ribonucleoprotein Sm D3 containing four sDMAs (Fig. 4a). […] To identify ideal concentrations for screening, we performed a cross-titration of Tudor domains and binding peptides (Supplementary Fig. 3b).
(§1) The AlphaScreen was conducted in 20 mM sodium phosphate pH 6.5, 50 mM NaCl, Tween 0.01%, BSA 0.1%. Protein concentration was optimized for each batch of purified protein. Optimal concentration was chosen at the lowest concentration with ~80% of maximum signal. […] In the first step, 10 µl of the protein solution containing either SMNDC1’s or SMN’s Tudor domain coupled to a 6xHis-Tag were distributed to 384-well plates pre-spotted with compounds and controls, shaken and incubated for 30 min at RT. Afterwards, 10 µl of peptide solution was added to each well and incubated for 1 h at RT. Finally, 5 µl of a solution containing both Streptavidin Donor and nickel chelate (Ni-NTA) Acceptor beads was added and again incubated for 1 h at RT.

SMNDC1 Tudor domain = biological target: T1, SMNDC1 Tudor domain (Homo sapiens, UniProt O75940); assay: AlphaScreen, SMNDC1 Tudor domain / sDMA-peptide interaction; settings: for effect of the structural modification on potency / IC50: structure-activity relationships around compound 1; for selectivity between SMNDC1 and SMN: AlphaScreen SMNDC1 vs SMN
T1 sequence (O75940 65-128): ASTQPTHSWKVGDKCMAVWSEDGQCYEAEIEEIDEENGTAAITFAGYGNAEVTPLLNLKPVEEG
Excerpt: To pharmacologically perturb SMNDC1 function, we set out to identify small molecule inhibitors of SMNDC1’s Tudor domain based on perturbing its interaction with a dimethylarginine peptide. To establish an AlphaScreen[50], we coupled donor beads to purified SMNDC1’s (or SMN’s) Tudor domain via a His-Tag and acceptor beads to a biotinylated peptide corresponding to the C-terminal region of the Small nuclear ribonucleoprotein Sm D3 containing four sDMAs (Fig. 4a). […] To identify ideal concentrations for screening, we performed a cross-titration of Tudor domains and binding peptides (Supplementary Fig. 3b).
as §1
Category Parameter Description
Assay Type of assay In vitro AlphaScreen / luminescence proximity
Target Tudor domain of SMNDC1
Primary measurement Decrease in luminescence signal reflecting
disruption of heterodimeric complex between
SMNDC1-Tudor domain and a peptide
corresponding to the C-terminus of Small nuclear
ribonucleoprotein Sm D3 containing 4 sDMAs
Key reagents AlphaScreen no-wash assay kit containing
Streptavidin Donor beads and nickel chelate (Ni-
NTA) AlphaScreen Acceptor beads (PerkinElmer
Assay protocol Described in Methods section
Screen Format PerkinElmer OptiPlate-384 well plate
Concentration(s) tested Typically 10 μM (0.1% DMSO)
Plate controls 32 positive control wells (Mitoxantrone, quencher),
32 negative control wells (DMSO)
Reagent/ compound dispensing system Echo 520 Liquid Handler Multidrop™ Combi
Normalization Raw signal was normalized plate-specifically by
correcting row and column-specific mean signals to
the mean signal of the entire plate, each after
removing the highest and lowest 25% of values. Raw
signal was then converted to percent of control
signal, but linear regression to plate-specific mean
signal of DMSO wells (set to 100 percent of control)
and positive control wells (set to 0% of control), after
outlier removal using a Grubbs test.
unspecific quenchers), Secondary screen (with

In the case of `OCCCCCCO` [1,6-hexanediol, reference compound], the “focal localization of SMNDC1-GFP within the nucleus” value (SMNDC1-GFP αTC1 clones; live cells, 2.5% or 5%) is reported as “losing its focal localization within the nucleus”.
`O=C(Nc1nc(-c2ccccn2)cs1)c1ccc(S(=O)(=O)N2CCOCC2)cc1` [Fig. 4e] was tested, and the IC50 (SMN Tudor domain) was 640 nM and the IC50 (SMNDC1 Tudor domain) was 770 nM.
With `COc1ccc(Cc2nnc(NC(=O)Cc3cccs3)s2)cc1OC` [Fig. 4g] the IC50 (SMN Tudor domain) was 5800 nM and the IC50 (SMNDC1 Tudor domain) was 2300 nM.
`CC1NC(=O)NC1CCCCCC(=O)OCC(=O)c1ccccc1` (centres unmarked) [Fig. 4h] gave an IC50 (SMN Tudor domain) of 4000 nM and an IC50 (SMNDC1 Tudor domain) of 190 nM.
`CCc1ccccc1NC(=O)c1cccc2c1C(=O)N(c1ccc(OC)cc1)C2` [Fig. 4i] showed an IC50 (SMN Tudor domain) of 3900 nM and an IC50 (SMNDC1 Tudor domain) of 1400 nM.
`Cc1cc(C)n2c(Nc3ccccc3C)c(-c3ccccn3)nc2n1` [Fig. 4k] gave an IC50 (SMN Tudor domain) of 1200 nM and an IC50 (SMNDC1 Tudor domain) of 1100 nM.
With `CCN(CC)S(=O)(=O)c1ccc(C(=O)Nc2nc(-c3cccnc3)cs2)cc1` [compound 3] the IC50 (SMN Tudor domain) was > 50000 nM and the IC50 (SMNDC1 Tudor domain) was > 50000 nM.
Work on `CN(C)S(=O)(=O)c1ccc(C(=O)Nc2nc(-c3ccncc3)cs2)cc1` [compound 4] yielded an IC50 (SMN Tudor domain) of 3030 nM and an IC50 (SMNDC1 Tudor domain) of 9560 nM.
Compound `COc1ccccc1-c1csc(NC(=O)c2ccc(S(=O)(=O)N(C)C)cc2)n1` [compound 5] has an IC50 (SMN Tudor domain) of 1700 nM and an IC50 (SMNDC1 Tudor domain) of 920 nM.
In the case of `Cc1ccc(-c2csc(NC(=O)c3ccc(S(=O)(=O)N4CCCC4)cc3)n2)o1` [compound 6], the IC50 (SMN Tudor domain) is reported as 29400 nM and the IC50 (SMNDC1 Tudor domain) is reported as 33700 nM.
With `O=C(Nc1nc(-c2cccs2)cs1)c1ccc(S(=O)(=O)N2CCCC2)cc1` [compound 7] the IC50 (SMN Tudor domain) was > 50000 nM and the IC50 (SMNDC1 Tudor domain) was > 50000 nM.
In the case of `N#Cc1cccc(C(=O)Nc2nc(-c3ccc[nH]3)cs2)c1` [compound 8], the IC50 (SMN Tudor domain) is reported as 8240 nM, the IC50 (SMNDC1 Tudor domain) is reported as 4050 nM and the “effect of the structural modification on potency / IC50” value (“effect … on potency / IC50” for short) (SMNDC1 Tudor domain) is reported as “some loss of potency”.
In the case of `CCOC(=O)c1csc(NC(=O)c2ccc(S(=O)(=O)N(C)C)cc2)n1` [compound 9], the IC50 (SMN Tudor domain) is reported as > 50000 nM, the IC50 (SMNDC1 Tudor domain) is reported as > 50000 nM and the “effect … on potency / IC50” value (SMNDC1 Tudor domain) is reported as “complete loss of activity”. The “SMNDC1-GFP spots within the nucleus” value (SMNDC1-GFP αTC1 clones; 50 µM, 12–16 h) was “not observed” and the “SMNDC1 within the nucleus (nuclear SMNDC1-GFP)” value (SMNDC1-GFP αTC1 clones; 50 µM, 12–16 h) was “not observed”.
For `Cc1sc(NC(=O)c2ccc(S(=O)(=O)N(C)C)cc2)nc1-c1ccccn1` [compound 10], the IC50 (SMN Tudor domain) was 1260 nM, the IC50 (SMNDC1 Tudor domain) was 450 nM and the “effect … on potency / IC50” value (SMNDC1 Tudor domain) was “without loss of potency”.
With `CCc1sc(NC(=O)c2ccc(S(=O)(=O)N(C)C)cc2)nc1-c1ccccn1` [compound 11] the IC50 (SMN Tudor domain) was 3520 nM and the IC50 (SMNDC1 Tudor domain) was 1400 nM.
`CN(C)S(=O)(=O)c1ccc(C(=O)Nc2nc(-c3ccccn3)c(Br)s2)cc1` [compound 12] gave an IC50 (SMN Tudor domain) of 3840 nM and an IC50 (SMNDC1 Tudor domain) of 1370 nM.
`Nc1csc(-c2ccccn2)n1` [compound 14] showed an IC50 (SMN Tudor domain) of 5350 nM and an IC50 (SMNDC1 Tudor domain) of 1780 nM.
In the case of `Nc1ncc(-c2ccccn2)s1` [compound 15], the IC50 (SMN Tudor domain) is reported as 15200 nM, the IC50 (SMNDC1 Tudor domain) is reported as > 50000 nM and the “selectivity between SMNDC1 and SMN” value (SMNDC1 Tudor domain) is reported as “preferentially inhibited SMN over SMNDC1”. The “effect … on potency / IC50” value (SMNDC1 Tudor domain) was “significant loss of activity”.
For `Nc1nc(-c2ccccn2)co1` [compound 16], the IC50 (SMN Tudor domain) was > 50000 nM, the IC50 (SMNDC1 Tudor domain) was 20700 nM and the drop in potency (SMNDC1 Tudor domain; thiazole replaced with analogous oxazole) was 40 fold.
`COc1ccc(CCNc2nc(-c3ccccn3)cs2)cc1OC` [compound 17] gave an IC50 (SMN Tudor domain) of 2000 nM and an IC50 (SMNDC1 Tudor domain) of 1420 nM.
Work on `O=S(=O)(Nc1nc(-c2ccccn2)cs1)c1ccccc1` [compound 18] yielded an IC50 (SMN Tudor domain) of 2550 nM and an IC50 (SMNDC1 Tudor domain) of 1000 nM.
`N=C(N)Nc1nc(-c2ccccn2)cs1` [compound 19] gave an IC50 (SMN Tudor domain) of 13200 nM and an IC50 (SMNDC1 Tudor domain) of 14500 nM.
With `O=C(Nc1nc(-c2ccccn2)cs1)C1CC1` [compound 20] the IC50 (SMN Tudor domain) was 2930 nM and the IC50 (SMNDC1 Tudor domain) was 2120 nM.
`CCn1ccc(C(=O)Nc2nc(-c3ccccn3)cs2)n1` [compound 21] was tested, and the IC50 (SMN Tudor domain) was 1160 nM and the IC50 (SMNDC1 Tudor domain) was 1090 nM.
Compound `Cc1ccc(C(=O)Nc2nc(-c3ccccn3)cs2)o1` [compound 22] has an IC50 (SMN Tudor domain) of 900 nM and an IC50 (SMNDC1 Tudor domain) of 470 nM.
In the case of `Cc1ccnc2nc(C(=O)Nc3nc(-c4ccccn4)cs3)nn12` [compound 24], the IC50 (SMN Tudor domain) is reported as 1350 nM and the IC50 (SMNDC1 Tudor domain) is reported as 810 nM.
`CC(C)(C)CNC(=O)c1ccc(C(=O)Nc2nc(-c3ccccn3)cs2)cc1` [compound 25] was tested, and the IC50 (SMN Tudor domain) was 9820 nM, the IC50 (SMNDC1 Tudor domain) was 1470 nM and the “selectivity between SMNDC1 and SMN” value (SMNDC1 Tudor domain) was “increased selectivity for SMNDC1 over SMN”.
For `O=C(O)c1ccc(C(=O)Nc2nc(-c3ccccn3)cs2)cc1` [compound 26], the IC50 (SMN Tudor domain) was 3380 nM and the IC50 (SMNDC1 Tudor domain) was 1100 nM.
For `O=C(Nc1nc(-c2ccccn2)cs1)c1ccc(-n2cnnn2)cc1` [compound 27], the IC50 (SMN Tudor domain) was 1230 nM and the IC50 (SMNDC1 Tudor domain) was 730 nM.
In the case of `CC(C)(C)OC(=O)NCCNC(=O)c1ccc(C(=O)Nc2nc(-c3ccccn3)cs2)cc1` [compound 28], the IC50 (SMN Tudor domain) is reported as 15400 nM and the “effects on SMNDC1 and SRRM2 localization” value (SMNDC1-GFP αTC1 clones; double-tagged SMNDC1-GFP SRRM2-RFP αTC1-clone, 50/25/12.5/6.25/3.125 µM) is reported as “could confirm the effects observed for the non-selective compound 1”.

From PMC10432564, “Pharmacological perturbation of the phase-separating protein SMNDC1” (Nature Communications, 2023)
